Counter-ions that a name gives are not always drawn. Like-named read-outs stand apart in the source and are kept apart here.
Assays:
[1] = target: T1, human EP4 receptor (Homo sapiens, UniProt P35408); assay: Determination of cAMP in CHO cells transfected with human EP4 receptor (functional test); assay type: cell-based; design: expressed in transfected cells; host or cells: CHO cells; conditions: for Agonist effect (inactive up to): cAMP production in absence of PGE2, vs 1 μM PGE2 control; for Kb: cAMP, CHO-hEP4, 30 nM PGE2, modified Cheng Prusoff; for IC50: inhibition of cAMP response to 30 nM PGE2, read-out: Antagonist effect: IC50
Protocol: Determination of cAMP in CHO Cells Transfected with Human EP4 Receptor (Functional Test)
Method: Evaluation of the agonist and antagonist activity of Compound 1 in the human EP4 receptor expressed in CHO cells transfected with the human EP4 receptor, determined by measuring its effects on cAMP production in the absence and in the presence of the endogenous agonist PGE2.
The CHO cells were suspended in HBSS buffer (Invitrogen) with the addition of HEPES 20 mM (pH 7.4) and IBMX […], then distributed in microplates at a density of 20000 cells per well and incubated for 10 minutes at room temperature in the absence (control) or in presence of the compound under examination. As a reference control of the agonist activity, 1 μM of PGE2 was added to independent dosage wells. In the case of the evaluation of the antagonistic effect, the reference agonist PGE2 was instead added to a final concentration of 30 nM. After 10 minutes of incubation at room temperature, the cells were lysed and the fluorescence acceptor (cAMP labelled D2) and the fluorescence donor (anti-cAMP antibody labelled with europium cryptate) were added. After 60 minutes at room temperature, the fluorescence transfer was measured at a wavelength of 337 nm in excitation and at 620 and 665 nm in emission using a microplate reader (Envison, Perkin Elmer). The cAMP concentration was determined by dividing the measured signal at 665 nm by that measured at 620 nm (ratio). The results were expressed, in the case of the evaluation of the agonist effect, as a percentage of the control response at 1 μM of PGE2 while, in the case of the evaluation of the antagonist effect, as a percentage of inhibition of the response of the control agonist at 30 nM PGE2. For the determination of the antagonist activity, the apparent dissociation constant (Kb) was calculated by applying the modified Cheng Prusoff equation (Kb=IC50/(1+A/EC50A)); where A=concentration of the reference agonist PGE2, and EC50A=EC50 value of the reference agonist.

[2] = target: T2, EP4 receptor (Rattus norvegicus, UniProt P43114); assay: Ex-vivo functional test: reversion of PGE2 effect on LPS-induced TNF alpha release in rat whole blood (EP4 receptor occupation); conditions: 30 mg/kg oral; for Effect per se on the release of TNF alpha (in absence of PGE2): LPS only; for Reversion of the effect of PGE2 on LPS-induced TNF alpha release: blood sampled 1 hour after treatment, **p<0.01 vs vehicle
T2 construct: by the cells present in the whole blood of the rat and expressing the EP4 receptor; from tissue; host or cells: whole blood of male Wistar rats dosed orally, ex vivo
Protocol: Ex-Vivo Functional Test: Evaluation in the Rat of EP4 Receptor Occupation by Compound 1 (30 mg/kg) Compared to CR6086 (30 mg/kg)
Method: The release of the cytokine TNF alpha induced by the endotoxin Lipopolysaccharide (from E. coli) and modulated by increasing concentrations of PGE2 was evaluated, by the cells present in the whole blood of the rat and expressing the EP4 receptor. As it is known from the literature, PGE2 modulates this release by inhibiting it, and the compounds tested, selective for the EP4 receptor, if present in the blood following their uptake, will be bound to the receptor, preventing PGE2 from inhibiting cytokine release. This reversal effect of the modulation of TNF alpha release can be considered a biomarker of the antagonism towards the EP4 receptor.
Male Wistar rats (Charles River, Italy) weighing 250-275 g were used, orally treated with a vehicle or Compound 1 (30 mg/kg) or CR6086 (30 mg/kg). Each treatment group consisted of 6 animals.
Measurement of the Ex-Vivo Effects in Whole Blood of the Rat:
The effects of the receptor occupancy by the compounds under examination was evaluated one hour after their administration, and compared to those measured in the presence of the vehicle alone. After gaseous anaesthesia with isofluorane, blood was taken from the abdominal aorta and transferred to tubes containing heparin (0.1-0.2 U/ml). Then 0.4 ml blood aliquots were taken and dispensed into a series of test tubes which were pre-heated at 37° C. for 10 minutes. LPS (0.1 μg/ml final concentration) were added to the samples, which represented the test control, or an LPS mix (0.1 μg/ml final concentration)+PGE2 at various concentrations. In the samples representing the basal release of cytokine, LPS was replaced by sterile phosphate buffer (PBS). The samples were incubated for 4 hours at 37° C., then 40 μl of 10 mM EDTA were added and the samples were transferred into ice. The samples were then centrifuged at 1500×g for 10 minutes at 4° C. and the plasma thus obtained was removed and stored at −80° C. until the time of the dosing. The content of TNF alpha in the plasma was measured by means of a specific commercial kit.
The final concentrations of TNF alpha were calculated for each animal treated and for each experimental condition, from which the percentage of inhibition due to increasing concentrations of PGE2 were obtained, compared to the sample containing only LPS. The cytokine release baseline values resulted to be below the ELISA assay sensitivity limit, indicated by the manufacturer. Therefore, the IC50 value was calculated from this inhibition curve. […] The mean TNF alpha values of the samples in presence of only LPS, in the different treatment groups were analysed to verify the possible intrinsic effect of the compound under examination. […]

[3] = target: T1, human EP4 receptor; assay: [3H]-PGE2 binding to recombinant human EP4 receptor (HEK293 membranes); design: expressed in transfected cells; conditions: for IC50: recombinant human EP4 receptor, HEK293 membranes, radioligand 1 nM, 90 min 25° C., read-out: [3H]-PGE2 binding IC50 (nM ± SD)
Protocol: Studies of Binding Towards the Human EP4 Receptor.
The experiments were performed in accordance with the procedure described by Abramovitz et al (Biochemica and Biophysica Acta; 1483, 285-293, 2000).
The cell membranes bearing the human EP4 receptor, stably expressed by HEK293 cells (Human Embryonic Kidney 293) were prepared as described below. After eliminating the culture medium (DMEM, supplemented with Glutamax I and containing 10% of foetal bovine serum and blasticidin 10 μg/ml) a wash of the cell monolayer was performed with 10 ml of hypotonic lysis buffer (TRIS-CI 5 mM+EDTA 5 mM-pH 7.4). The cells, which grew in adherence in the above mentioned medium at 37° C. with 5% CO2, were then detached from the growth container (150 cm^2 flask) and lysed by mechanical action, adding 20 ml of fresh lysis buffer. The lysates were stirred for 30 seconds and centrifuged at 40000×g for 22 minutes at 4° C. The final pellet was stored at −80° C. until use. At the time of the binding experiment, the membranes were thawed and re-suspended in analysis buffer (10 mM MES-KOH pH6, containing 10 mM MgCl2 and 1 mM CaCl2)) to obtain a concentration of 1 mg of proteins/ml. The protein content of the membrane suspension was determined using bovine serum albumin as a standard.
In the experiments, 10 μl aliquots of membranes were incubated with the radioligand [^3H]-Prostaglandin E2 (PGE2) at the concentration of 1 nM, in absence or in presence of various concentrations of the compounds to be tested. The non-specific binding was determined in the presence of PGE2 1 μM. The incubation, in a final volume of 0.1 ml, performed in 96 deepwell microplates, proceeded for 90 minutes at 25° C. The separation of the free radioligand from that bound to the receptor occurred by rapid filtration under vacuum, using Unifilter GFB glass fibre filtering microplates, pre-wetted with 0.3% of polyethylene-imine dissolved in the analysis buffer, followed by 3 washes with cold buffer (50 mM HEPES, NaCl 500 mM, BSA 0.1%, pH 7.4). The filtration discs were then dried at 30° C., to which 0.05 ml of Microscint-20 scintillation liquid (Perkin Elmer) was added to each and at the end the radioactivity present was measured after at least one hour of stabilization. The compound/radioligand competition curves were analysed using the “Non linear curve fitting” program (Graph Pad, version 7 for Windows), which allowed calculating the IC50 value (concentration capable of inhibiting the 50% of the radioligand binding to the receptor under examination) for each compound evaluated.

[4] = tested on: collagen-induced arthritis in mice; assay: Collagen arthritis in the mouse (CIA); assay type: in vivo
[5] = Pharmacokinetics in Wistar rats; assay type: in vivo; conditions: for Cmax: rat, plasma, oral
[6] = read-out: Antagonist effect: Kb
[7] = read-out: Kb (apparent dissociation constant), antagonist

T2 sequence (P43114 whole entry): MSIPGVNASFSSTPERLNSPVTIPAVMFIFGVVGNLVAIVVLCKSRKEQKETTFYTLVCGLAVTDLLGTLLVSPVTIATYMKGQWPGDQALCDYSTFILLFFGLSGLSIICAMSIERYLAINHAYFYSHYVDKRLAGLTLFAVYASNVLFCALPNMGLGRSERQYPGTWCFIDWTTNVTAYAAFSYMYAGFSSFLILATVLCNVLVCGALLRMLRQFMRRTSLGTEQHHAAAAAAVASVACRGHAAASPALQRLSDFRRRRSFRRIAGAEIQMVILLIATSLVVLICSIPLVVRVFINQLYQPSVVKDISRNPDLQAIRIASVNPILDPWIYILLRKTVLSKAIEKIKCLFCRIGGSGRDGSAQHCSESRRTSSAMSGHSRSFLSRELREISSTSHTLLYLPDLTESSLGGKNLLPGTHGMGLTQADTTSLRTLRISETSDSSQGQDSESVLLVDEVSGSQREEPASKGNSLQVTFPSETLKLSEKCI
T1 sequence (P35408 whole entry): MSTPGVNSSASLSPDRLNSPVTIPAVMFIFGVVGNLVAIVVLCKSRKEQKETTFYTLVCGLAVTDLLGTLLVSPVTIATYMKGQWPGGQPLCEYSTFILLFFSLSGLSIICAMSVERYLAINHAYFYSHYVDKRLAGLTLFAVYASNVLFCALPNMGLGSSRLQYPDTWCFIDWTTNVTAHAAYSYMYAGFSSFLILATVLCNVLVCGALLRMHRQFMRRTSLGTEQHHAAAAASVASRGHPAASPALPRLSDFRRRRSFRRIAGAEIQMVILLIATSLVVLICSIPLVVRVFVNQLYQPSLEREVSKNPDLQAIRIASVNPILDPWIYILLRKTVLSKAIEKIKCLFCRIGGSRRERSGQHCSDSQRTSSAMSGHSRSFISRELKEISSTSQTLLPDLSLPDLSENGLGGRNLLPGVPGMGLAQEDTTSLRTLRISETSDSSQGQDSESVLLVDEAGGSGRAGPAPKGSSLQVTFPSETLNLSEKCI

| Structure (SMILES) | Agonist effect (inactive up to) [1] | Kb [1, 6] [nM] | Kb [1, 7] [nM] | IC50 [1] [nM] | Effect per se on the release of TNF alpha (in absence of PGE2) [2] | Reversion of the effect of PGE2 on LPS-induced TNF alpha release [2] | IC50 [3] [nM] | Progression of collagen-induced arthritis (oedema, clinical and histopathological score) ([4]; 45 and 90 mg/kg oral, 16 days, DBA/1 mice) | Reversion of clinical symptoms (swelling of paws) compared with CR6086 30 mg/kg ([4]; compound 1 at 45 mg/kg vs CR6086 30 mg/kg in a similar study) | Oral bioavailability [5] | AUC (0-24 h) ([5]; 5 mg/kg) [ngxh/ml] | Cmax ([5]; 5 mg/kg, converted from 4270 ng/ml, read-out: CMAX as plasma concentration) [µM] | Cmax ([5]; 5 mg/kg, read-out: CMAX) [ng/mL] | times less active than Compound 1 in inhibiting the binding of the PGE2 ligand to the human EP4 receptor ([3]; relative to Compound 1) |
| --- | --- | --- | --- | --- | --- | --- | --- | --- | --- | --- | --- | --- | --- | --- |
| O=C(O)c1ccc(C2(NC(=O)[C@H]3CC4(CCN3Cc3ccc(C(F)(F)F)cc3)CC4)CC2)cc1 [CR6086, 4-(1-(6-(4-(trifluoromethyl)benzyl)-6-azaspiro [2.5]octan-5-carboxamide)cyclopropyl) benzoic acid, reference compound] | > 10^−6 M | 7.8 | 7.8 | 82 | no significant effects per se | statistically significant reversion of the effect of PGE2 | 48 ± 3 |  |  |  |  |  |  |  |
| O=C(O)c1ccc(C2(NC(=O)[C@H]3CCCN3Cc3ccc(C(F)(F)F)cc3)CC2)cc1 [Compound 1] | > 10^−6 M | 15 | 15 | 160 | no significant effects per se | statistically significant reversion of the effect of PGE2 | 45 ± 0.4 | significantly and in a dose-dependent manner reduced the evolution of the pathology | greater effect on the reversion of clinical symptoms | excellent oral bioavailability | 5460 | ~9 | 4270 |  |
| O=C(O)c1ccc(C2(NC(=O)[C@@H]3CCCN3Cc3ccc(C(F)(F)F)cc3)CC2)cc1 [Compound 2, sodium salt of (S)-4-(1-(1-(4-(trifluoromethyl)benzyl)pyrrolidin-2-carboxamide)cyclopropyl) benzoic acid] |  |  |  |  |  |  | 2210 ± 940 |  |  |  |  |  |  | about 50 times |
